Measured values published in ChEMBL document CHEMBL5303573, “Mapping human microbiome drug metabolism by gut bacteria and their genes” (Nature, 2019).

Experiments:
Format in all cases: ADME
Parameters in all cases: dose 2 uM
Conditions in all cases: 2 µM
[1] = target: T1, Nitroreductase-like protein (Bacteroides thetaiotaomicron, UniProt Q8AB93); experiment: The drug is tested on Bacteroides thetaiotaomicron strain: VPI-5482 for biotransformation. The drug concentrations were measured before and after a 12-h incubation by liquid-chromatography-coupled mass spectrometry (LC–MS)
T1 sequence (Q8AB93 whole entry): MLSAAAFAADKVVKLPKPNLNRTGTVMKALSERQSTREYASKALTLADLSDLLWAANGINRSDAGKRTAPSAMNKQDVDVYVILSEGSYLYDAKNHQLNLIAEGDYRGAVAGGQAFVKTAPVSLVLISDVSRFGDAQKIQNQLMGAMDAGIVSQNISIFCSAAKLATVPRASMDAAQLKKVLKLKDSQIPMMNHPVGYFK

[2] = target: T2, Acyltransferase 3 domain-containing protein (Phocaeicola dorei, UniProt B6W2J3); experiment: (§1) The drug is tested on Bacteroides dorei strain: DSM17855 for biotransformation. The drug concentrations were measured before and after a 12-h incubation by liquid-chromatography-coupled mass spectrometry (LC–MS)
T2 sequence (B6W2J3 whole entry): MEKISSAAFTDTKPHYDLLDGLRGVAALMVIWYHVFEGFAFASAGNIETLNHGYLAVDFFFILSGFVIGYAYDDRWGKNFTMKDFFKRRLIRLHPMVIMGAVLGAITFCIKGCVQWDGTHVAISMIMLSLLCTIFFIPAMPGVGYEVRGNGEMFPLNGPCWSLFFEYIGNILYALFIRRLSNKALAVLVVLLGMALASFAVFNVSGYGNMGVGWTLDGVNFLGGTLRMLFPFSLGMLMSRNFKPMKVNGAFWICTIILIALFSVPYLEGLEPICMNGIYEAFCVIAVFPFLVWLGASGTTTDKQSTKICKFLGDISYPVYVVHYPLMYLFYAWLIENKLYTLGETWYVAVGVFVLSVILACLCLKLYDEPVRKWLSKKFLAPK

Esterase = target: T3, Esterase (Phocaeicola dorei, UniProt B6W2J6); experiment: as §1
T3 sequence (B6W2J6 whole entry): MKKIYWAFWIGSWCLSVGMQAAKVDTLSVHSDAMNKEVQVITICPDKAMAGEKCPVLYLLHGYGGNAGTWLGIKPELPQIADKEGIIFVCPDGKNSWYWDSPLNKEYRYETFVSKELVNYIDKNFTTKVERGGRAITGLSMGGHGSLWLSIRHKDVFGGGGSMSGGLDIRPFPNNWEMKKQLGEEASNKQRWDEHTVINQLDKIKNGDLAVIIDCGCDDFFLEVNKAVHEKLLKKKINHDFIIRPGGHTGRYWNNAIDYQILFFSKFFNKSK

[3] = target: T4, Nitroreductase domain-containing protein (Phocaeicola dorei, UniProt B6VU18); experiment: as §1
T4 sequence (B6VU18 whole entry): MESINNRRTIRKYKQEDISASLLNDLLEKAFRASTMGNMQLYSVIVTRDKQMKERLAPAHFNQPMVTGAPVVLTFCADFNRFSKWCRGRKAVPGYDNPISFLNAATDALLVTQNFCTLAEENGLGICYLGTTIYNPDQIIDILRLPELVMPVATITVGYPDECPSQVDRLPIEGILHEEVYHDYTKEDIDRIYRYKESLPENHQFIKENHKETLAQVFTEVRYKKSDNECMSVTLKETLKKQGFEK

[4] = target: T5, Nitroreductase domain-containing protein (Phocaeicola dorei, UniProt B6W3P3); experiment: as §1
T5 sequence (B6W3P3 whole entry): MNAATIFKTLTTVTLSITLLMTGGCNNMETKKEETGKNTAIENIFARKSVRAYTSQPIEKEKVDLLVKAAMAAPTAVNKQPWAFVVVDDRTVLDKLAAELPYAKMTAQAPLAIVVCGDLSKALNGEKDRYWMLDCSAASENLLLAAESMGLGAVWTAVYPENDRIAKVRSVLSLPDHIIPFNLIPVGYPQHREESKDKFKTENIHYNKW

[5] = target: T6, SGNH hydrolase-type esterase domain-containing protein (Phocaeicola dorei, UniProt B6VTE7); experiment: as §1
T6 sequence (B6VTE7 whole entry): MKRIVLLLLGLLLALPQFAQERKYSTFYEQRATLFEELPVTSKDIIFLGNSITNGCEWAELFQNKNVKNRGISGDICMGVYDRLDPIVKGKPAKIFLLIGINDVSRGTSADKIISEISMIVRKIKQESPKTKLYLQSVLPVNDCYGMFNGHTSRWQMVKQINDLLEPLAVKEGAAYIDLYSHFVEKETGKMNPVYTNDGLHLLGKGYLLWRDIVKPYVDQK

[6] = target: T7, SGNH hydrolase-type esterase domain-containing protein (Phocaeicola dorei, UniProt B6W1J1); experiment: as §1
T7 sequence (B6W1J1 whole entry): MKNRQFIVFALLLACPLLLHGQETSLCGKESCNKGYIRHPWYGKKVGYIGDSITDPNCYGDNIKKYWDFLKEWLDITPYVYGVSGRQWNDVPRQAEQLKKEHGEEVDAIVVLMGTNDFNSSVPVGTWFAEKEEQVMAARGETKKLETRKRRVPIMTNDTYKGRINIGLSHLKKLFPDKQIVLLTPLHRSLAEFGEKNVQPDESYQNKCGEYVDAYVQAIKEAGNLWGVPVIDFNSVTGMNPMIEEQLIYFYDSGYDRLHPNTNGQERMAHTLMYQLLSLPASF

[7] = target: T8, SGNH hydrolase-type esterase domain-containing protein (Phocaeicola dorei, UniProt B6W293); experiment: as §1
T8 sequence (B6W293 whole entry): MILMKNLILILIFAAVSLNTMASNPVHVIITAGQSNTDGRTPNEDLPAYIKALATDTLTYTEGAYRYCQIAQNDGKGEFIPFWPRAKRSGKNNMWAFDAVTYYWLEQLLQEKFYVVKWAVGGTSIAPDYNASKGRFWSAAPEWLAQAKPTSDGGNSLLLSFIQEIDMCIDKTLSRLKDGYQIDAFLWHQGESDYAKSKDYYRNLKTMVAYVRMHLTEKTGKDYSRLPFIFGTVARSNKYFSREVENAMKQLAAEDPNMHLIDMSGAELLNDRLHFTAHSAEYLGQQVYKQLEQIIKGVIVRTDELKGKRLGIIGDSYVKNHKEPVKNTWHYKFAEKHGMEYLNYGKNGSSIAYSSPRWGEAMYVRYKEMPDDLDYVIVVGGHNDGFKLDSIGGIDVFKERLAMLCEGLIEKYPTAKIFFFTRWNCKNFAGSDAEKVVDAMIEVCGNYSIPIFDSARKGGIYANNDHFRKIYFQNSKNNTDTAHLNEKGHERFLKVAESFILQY

[8] = target: T9, Steroid 5-alpha reductase C-terminal domain-containing protein (Phocaeicola dorei, UniProt B6W0N3); experiment: as §1
T9 sequence (B6W0N3 whole entry): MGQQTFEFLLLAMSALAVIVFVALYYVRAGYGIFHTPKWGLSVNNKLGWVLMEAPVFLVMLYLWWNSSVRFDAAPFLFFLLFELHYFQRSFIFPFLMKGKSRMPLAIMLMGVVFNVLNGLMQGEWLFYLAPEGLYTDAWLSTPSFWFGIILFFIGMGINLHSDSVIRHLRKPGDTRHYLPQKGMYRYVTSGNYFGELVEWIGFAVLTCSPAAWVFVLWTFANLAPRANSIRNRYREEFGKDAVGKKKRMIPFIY

C[C@]12CCC(=O)C=C1[C@@H]1C[C@@H]1[C@H]1[C@@H]3[C@@H]4C[C@@H]4[C@@]4(CCC(=O)O4)[C@@]3(C)CC[C@@H]12 [DROSPIRENONE]
Bacterial Biotransformation [1]: Compound NOT metabolized | Bacterial Biotransformation [2]: Compound NOT metabolized | Bacterial Biotransformation (Esterase): Compound NOT metabolized | Bacterial Biotransformation [3]: Compound NOT metabolized | Bacterial Biotransformation [4]: Compound NOT metabolized | Bacterial Biotransformation [5]: Compound NOT metabolized | Bacterial Biotransformation [6]: Compound NOT metabolized | Bacterial Biotransformation [7]: Compound NOT metabolized | Bacterial Biotransformation [8]: Compound metabolized
